# According to paper PMC9404711 (Antibiotics, 2022):
# Where two headings read alike, the source gives them in different places. Non-standard residues stand in square brackets, D forms with d. Residues, ends and D or L forms follow the SMILES beside them.
# Tests used:
# S. aureus (ATCC 29213) = assay: MIC determination, broth microdilution; format: cell-based, Staphylococcus aureus; conditions: S. aureus ATCC 29213, MHB-II, 37 °C, 18–24 h, triplicate
# In short: (§1)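 Broth microdilution in cation-adjusted Mueller-Hinton broth with a final inoculum of 5 × 10^5 CFU/mL, incubated 18–24 h at 37 °C, run in triplicate. Peptide stocks were 10 mg/mL in water; colistin and vancomycin served as positive controls.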
# E. coli (ATCC 25922) = format: cell-based, Escherichia coli; conditions: E. coli ATCC 25922, MHB-II, 37 °C, 18–24 h, triplicate
# In short: as §1
# [1] = system: K. pneumoniae (ATCC 13883); format: cell-based, Klebsiella pneumoniae; conditions: K. pneumoniae ATCC 13883, MHB-II, 37 °C, 18–24 h, triplicate
# In short: as §1
# [2] = system: A. baumannii (ATCC 19606); format: cell-based, Acinetobacter baumannii; conditions: A. baumannii ATCC 19606, MHB-II, 37 °C, 18–24 h, triplicate
# In short: as §1
# [3] = system: P. aeruginosa (ATCC 27853); format: cell-based, Pseudomonas aeruginosa; conditions: P. aeruginosa ATCC 27853, MHB-II, 37 °C, 18–24 h, triplicate
# In short: as §1
# [4] = Hydrophobicity by analytical RP-HPLC (%B at elution); format: physicochemical; conditions: chromatographic, analytical reversed-phase HPLC, Waters Symmetry C18 5 μm 4.6 × 250 mm; A: H2O + 0.1% TFA, B: 90:10 ACN-H2O + 0.1% TFA
# [5] = system: colistin-susceptible strain A. baumannii ATCC 19606; conditions: at 4 × MIC and above; cited from earlier work
# E. coli = assay: Time-kill assay; format: cell-based, Escherichia coli; conditions: start 5 × 10^5 CFU/mL, MHB-II 37 °C, n = 3
# Protocol: The limit of detection was set to 10 CFU/mL, corresponding to a single viable colony after the overnight incubation of 100 μL bacteria suspension on an agar plate.
# An overnight culture (MHB-II media) of E. coli was diluted 1:100 in preheated MHB-II, placed in a water bath (37 °C), and allowed to grow until OD600 = 0.2–0.4 was reached. The bacterial suspension was then diluted 1:10 in 25 mL preheated MHB-II, placed in a water bath (37 °C), and then allowed to grow until an OD = 0.2 was reached. […] At time points 0, 1, 3, 5, and 24 h, 250 μL of each sample suspension were transferred to a 0.9 % saline solution in a 1-mL Eppendorf tube. The bacterial cells were washed twice in 0.9% saline, spun down (10,000× g for 5 min) and resuspended in 250 μL 0.9% saline. Then, 10-fold dilution series were prepared and aliquots of 10 μL were spotted onto LB Agar. In addition, 100 μL of undiluted bacterial suspension (except the control sample) was plated out on a separate LB plate. All of the plates were incubated (37 °C) overnight and the results were read after incubation.
# human erythrocytes = conditions: 150 μM peptide; 0.5% (v/v) red blood cell suspension in PBS, 1 h at 37 °C, absorbance 414 nm; melittin positive control, PBS negative control; three wells
# Protocol: PBS served as the negative control and 5 μM melittin served as the positive control. All melittin solutions were prepared in Protein LoBind Eppendorf tubes to prevent the adsorption of melittin to the inner surface of the tubes.
# Preparation of peptide solutions and melittin: A 5 μM melittin solution in PBS was prepared the day before the hemolysis experiment. First, 150 μL of this solution was transferred to each of the positive control wells and stored in the fume hood to coat the wells. On the day of the experiment, the melittin solution was discarded and the wells were washed with 3 × PBS. A 2.5 μM melittin solution in PBS was prepared and 75 μL was transferred to the wells. PBS (150 μL) was used as the negative control. A solution of each peptide was prepared by dissolving the peptide in 0.5 mL PBS to obtain a concentration of 300 μM. Each peptide solution (150 μL) was transferred to the wells in three wells each in row A, and the plate was diluted down.
# Preparation of the red blood cell suspension: 1 mL of type O- whole blood in citrate was transferred to a cryotube. The whole blood was washed with 3 × PBS; adding 3, 3, and 4 mL of PBS, respectively. In between, the blood was centrifuged for 8 min (3000, 3000, and 4000 rpm, respectively) and the supernatant was removed after each centrifugation. A 0.5% (v/v) blood suspension was prepared by adding 40 μL of the washed blood cells to 8 mL of PBS. Then, 75 μL of the red blood cell suspension was transferred to each well and mixed gently. The plate was sealed and incubated for 1 h at 37 °C. After incubation, the plate was centrifuged at 4000 rpm for 10 min. Afterwards, 60 μL of the supernatant from each well was quickly transferred to an ELISA plate.
# The absorbance was determined at 414 nm, and Equation (1) below was used to calculate the hemolytic activity of the peptides.
Structure (SMILES),MIC SA (S. aureus (ATCC 29213); inoculum 5 × 10^5 CFU/mL),MIC SA (S. aureus (ATCC 29213); value in brackets),MIC EC (E. coli (ATCC 25922); inoculum 5 × 10^5 CFU/mL),MIC EC (E. coli (ATCC 25922); value in brackets),MIC KP ([1]; inoculum 5 × 10^5 CFU/mL),MIC KP ([1]; value in brackets),MIC AB ([2]; inoculum 5 × 10^5 CFU/mL),MIC AB ([2]; value in brackets),MIC PA ([3]; inoculum 5 × 10^5 CFU/mL),MIC PA ([3]; value in brackets),%B (hydrophobicity: percentage of mobile phase B at the peak elution time) [4],number of CFU in time-kill [5],viable cells after 24 h (E. coli; 3 × MIC (12 μg/mL)),viable cells after 24 h (E. coli; 5 × MIC (20 μg/mL)),% hemolysis of human erythrocytes (human erythrocytes)
"CC[C@@H](C)[C@@H](NC(=O)[C@@H](CCCCN)NC(=O)[C@@H](CCCCN)NC(=O)[C@@H](Cc1ccccc1)NC(=O)[C@@H](CC(C)C)NC(=O)[C@@H](CCCCN)NC(=O)[C@H](N)CCCCN)C(=O)N[C@H](CC(C)C)C(=O)N[C@H](CCCNC(=N)N)C(=O)N[C@H](Cc1ccc(O)cc1)C(=O)N[C@H](CC(C)C)C(N)=O [BP214, reference compound] (H-[dK][dK][dL][dF][dK][dK][dI][dL][dR][dY][dL]-NH2; N-terminus assumed)",8 µg/mL,5.5 µM,4 µg/mL,2.8 µM,2 µg/mL,1.4 µM,2 µg/mL,1.4 µM,4 µg/mL,2.8 µM,50.8 %B,below the detection level,–,–,–
CCCCCCCCCC(=O)N[C@H](CCCCN)C(=O)N[C@H](CCCCN)C(=O)N[C@H](CC(C)C)C(=O)N[C@H](Cc1ccccc1)C(=O)N[C@H](CCCCN)C(=O)N[C@H](CCCCN)C(=O)N[C@@H](C(=O)N1CCCC[C@H](C(N)=O)NC(=O)[C@@H](Cc2ccc(O)cc2)NC(=O)[C@@H](CCCNC(=N)N)NC(=O)[C@@H](CC(C)C)NC(=O)C1)[C@H](C)CC [compound 13],8 µg/mL,4.8 µM,4 µg/mL,2.4 µM,16 µg/mL,9.6 µM,2 µg/mL,1.2 µM,8 µg/mL,4.8 µM,60.9 %B,–,10^3 CFU/mL,10^2 CFU/mL,–
CCCCCCCCCC(=O)N[C@H](CCCCN)C(=O)N[C@H](CCCCN)C(=O)N[C@H](CC(C)C)C(=O)N[C@H](Cc1ccccc1)C(=O)N[C@H](CCCCN)C(=O)N[C@H](CCCCN)C(=O)N1CCCC[C@H](C(N)=O)NC(=O)[C@@H](Cc2ccc(O)cc2)NC(=O)[C@@H](CCCNC(=N)N)NC(=O)[C@@H](CC(C)C)NC(=O)[C@@H]([C@H](C)CC)NC(=O)C1 [compound 16],4 µg/mL,2.4 µM,8 µg/mL,4.8 µM,16 µg/mL,9.7 µM,4 µg/mL,2.4 µM,8 µg/mL,4.8 µM,61.3 %B,–,–,–,59%
